Key:
hWB = test: hWB; format: cell-based; conditions: printed as "hWB" value in the pMLKL IC50 column; no method given
[1] = target: T1, mouse Breast Cancer Resistance Protein (mBcrp) (Mus musculus, UniProt Q7TMS5); test: Transporter assay, bi-directional transport, MDCK-mBcrp cells; format: in vitro ADME; conditions: mouse, basolateral to apical / apical to basolateral, >2 = substrate, read-out: BCRP (efflux ratio)
T1 construct: host or cells: MDCK (MDCK-mBcrp)
T1 sequence (Q7TMS5 1-657): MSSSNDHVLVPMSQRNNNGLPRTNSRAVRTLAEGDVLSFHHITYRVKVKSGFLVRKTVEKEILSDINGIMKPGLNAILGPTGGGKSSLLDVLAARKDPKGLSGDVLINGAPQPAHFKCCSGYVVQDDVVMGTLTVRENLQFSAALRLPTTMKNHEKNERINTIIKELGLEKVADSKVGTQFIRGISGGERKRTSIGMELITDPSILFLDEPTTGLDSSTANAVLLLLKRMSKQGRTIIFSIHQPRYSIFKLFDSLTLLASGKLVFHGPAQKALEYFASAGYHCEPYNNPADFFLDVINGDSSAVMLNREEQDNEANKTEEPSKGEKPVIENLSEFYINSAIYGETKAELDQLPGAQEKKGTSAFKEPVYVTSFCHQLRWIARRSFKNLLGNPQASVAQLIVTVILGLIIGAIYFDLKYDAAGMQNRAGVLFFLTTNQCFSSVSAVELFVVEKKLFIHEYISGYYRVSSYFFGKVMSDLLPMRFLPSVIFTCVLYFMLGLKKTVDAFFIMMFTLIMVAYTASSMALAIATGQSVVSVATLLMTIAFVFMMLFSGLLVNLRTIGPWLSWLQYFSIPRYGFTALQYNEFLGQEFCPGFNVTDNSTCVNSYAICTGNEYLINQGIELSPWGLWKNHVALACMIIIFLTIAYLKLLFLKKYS
Experimental: (§1) Compounds were assessed as substrates of MDR1 P-glycoprotein (P-gp) and mouse Breast Cancer Resistance Protein (mBcrp) at 0.1 uM, for 2 hours, in bi-directional transport assays using recombinant MDCK cell lines as described previously (Feng et al. Drug Metabolism and Disposition 2008, Vol. 36:268-275). MDCK-MDR1 and MDCK-mBcrp cells were acquired from the National Institutes of Health (Bethesda, MID) and the Netherlands Cancer Institute respectively, and used under license agreement. Data are expressed as efflux ratios, where transport across the cell monolayer in the basolateral to apical direction is divided by transport in the apical to basolateral direction. Efflux ratios >2 indicate the test compound is a substrate of the transporter tested.

[2] = target: T2, MDR1 P-glycoprotein (P-gp) (Homo sapiens, UniProt P08183); test: Transporter assay, bi-directional transport, MDCK-MDR1 cells; format: in vitro ADME; conditions: human, MDCK-MDR1, 0.1 uM, basolateral to apical / apical to basolateral, >2 = substrate, read-out: PGP (efflux ratio)
T2 construct: host or cells: MDCK (MDCK-MDR1)
T2 sequence (P08183 whole entry): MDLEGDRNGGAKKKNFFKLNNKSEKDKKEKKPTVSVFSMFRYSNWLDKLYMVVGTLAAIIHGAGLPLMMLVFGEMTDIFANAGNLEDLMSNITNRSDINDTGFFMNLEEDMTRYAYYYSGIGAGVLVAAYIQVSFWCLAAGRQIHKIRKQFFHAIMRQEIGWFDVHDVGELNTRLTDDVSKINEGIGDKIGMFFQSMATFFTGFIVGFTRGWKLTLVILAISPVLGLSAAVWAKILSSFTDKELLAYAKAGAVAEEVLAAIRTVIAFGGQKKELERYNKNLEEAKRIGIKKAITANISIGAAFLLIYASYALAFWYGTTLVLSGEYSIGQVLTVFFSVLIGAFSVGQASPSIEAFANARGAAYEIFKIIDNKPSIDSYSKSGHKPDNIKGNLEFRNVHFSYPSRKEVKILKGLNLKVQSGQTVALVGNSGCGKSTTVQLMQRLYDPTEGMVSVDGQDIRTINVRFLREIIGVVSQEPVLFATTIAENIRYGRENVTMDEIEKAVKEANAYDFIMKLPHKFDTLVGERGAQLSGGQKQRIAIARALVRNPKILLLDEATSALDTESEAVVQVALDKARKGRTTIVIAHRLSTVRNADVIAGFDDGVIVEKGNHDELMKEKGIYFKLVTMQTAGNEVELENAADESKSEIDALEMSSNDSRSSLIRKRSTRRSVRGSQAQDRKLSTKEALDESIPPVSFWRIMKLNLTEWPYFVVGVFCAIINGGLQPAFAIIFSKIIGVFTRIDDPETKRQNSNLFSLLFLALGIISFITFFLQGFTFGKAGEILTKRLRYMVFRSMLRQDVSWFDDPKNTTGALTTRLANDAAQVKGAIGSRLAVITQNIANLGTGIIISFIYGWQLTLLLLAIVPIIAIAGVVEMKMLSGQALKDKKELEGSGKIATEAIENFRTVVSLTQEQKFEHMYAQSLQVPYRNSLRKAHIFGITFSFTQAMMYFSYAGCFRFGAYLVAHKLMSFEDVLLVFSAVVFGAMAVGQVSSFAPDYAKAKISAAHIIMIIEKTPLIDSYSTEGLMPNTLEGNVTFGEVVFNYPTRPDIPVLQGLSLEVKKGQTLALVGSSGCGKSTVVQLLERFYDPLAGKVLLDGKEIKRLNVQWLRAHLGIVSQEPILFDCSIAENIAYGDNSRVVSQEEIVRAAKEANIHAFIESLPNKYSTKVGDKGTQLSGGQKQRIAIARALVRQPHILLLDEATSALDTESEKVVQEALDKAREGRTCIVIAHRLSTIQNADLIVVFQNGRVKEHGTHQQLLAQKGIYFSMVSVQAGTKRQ
Experimental: as §1

Compound: CC(O)(c1ccc(F)cn1)C(F)(F)CCOc1c(F)ccc(-c2ccn3nc(N)nc3c2)c1F (single isomer, unassigned) [Example 27, 5-(3-(2-amino-[1,2,4]triazolo[1,5-a]pyridin-7-yl)-2,6-difluorophenoxy)-3,3-difluoro-2-(5-fluoropyridin-2-yl)pentan-2-ol]
- IC50 (hWB): 64 nM
- efflux ratio at 2 h, 0.1 uM [1]: 1.6
- efflux ratio at 2 h, 0.1 uM [2]: 1.1

Compound: CC(O)(c1ccc(F)cn1)C(F)(F)CCOc1c(F)ccc(-c2ccn3nc(N)nc3c2)c1F (single isomer, unassigned) [Example 28, 5-(3-(2-amino-[1,2,4]triazolo[1,5-a]pyridin-7-yl)-2,6-difluorophenoxy)-3,3-difluoro-2-(5-fluoropyridin-2-yl)pentan-2-ol]
- IC50 (hWB): 82 nM

Compound: CC(O)(c1ccc(F)cc1)C(F)(F)CCOc1c(F)cc(F)c(-c2ccn3nc(N)nc3c2)c1F (single isomer, unassigned) [Example 29, 5-(3-(2-amino-[1,2,4]triazolo[1,5-a]pyridin-7-yl)-2,4,6-trifluorophenoxy)-3,3-difluoro-2-(4-fluorophenyl)pentan-2-ol]
- IC50 (hWB): 4 nM
- efflux ratio at 2 h, 0.1 uM [1]: 2.5
- efflux ratio at 2 h, 0.1 uM [2]: 1.6

Compound: CC(O)(c1ccc(F)cc1)C(F)(F)CCOc1c(F)c(F)cc(-c2ccn3nc(N)nc3c2)c1F (single isomer, unassigned) [Example 30, 5-(3-(2-amino-[1,2,4]triazolo[1,5-a]pyridin-7-yl)-2,5,6-trifluorophenoxy)-3,3-difluoro-2-(4-fluorophenyl)pentan-2-ol]
- IC50 (hWB): 8 nM
- efflux ratio at 2 h, 0.1 uM [1]: 3
- efflux ratio at 2 h, 0.1 uM [2]: 2.5

— patent US20260217711A1, “TRIAZOLOPYRIDINYL ETHER LINKED COMPOUNDS AS KINASE INHIBITORS” (Bristol-Myers Squibb Company, priority 2023, published 2026)
